Data reported in US20090240048A1, “Alpha-crystalline form of substituted selenoxanthenes and the method of its preparation” (MEDBIOPHARM LTD, priority 2008, published 2009).

What was measured:
[1] = Angle of repose (flowability) of powder; format: physicochemical
Storage life = format: physicochemical

`c1ccc(C2C3=C(CCCC3)[Se]C3=C2CCCC3)cc1` [9-phenyl-symmetrical-octahydroselenoxanthene] gave an Angle of repose [1] of 52° and a Storage life (Storage life) of 6 months.
